Experimental data published in US20100004333A1, “COMPOSITIONS AND METHODS FOR TREATING CARDIOVASCULAR DISORDERS” (priority 2004, published 2010).
Marks after values point to notes of the source that are not given here.

Tested on: apoE−/− mice
Assay: Histology of lesions: total cells, macrophages (F4/80), extra-cellular matrix (collagen) in apoE−/− mice
Assay type: in vivo
Conditions: for % ECM of total lesion area / % Mφ of total lesion area / ECM area / Lesion area (extra-cellular matrix series) / Lesion area (macrophage series) / Mφ area / Lesion area (total cell density series) / Total cells/μm^2 / Total number of cells: mean ± SD
Description: The materials and methods used were essentially as described under Example 1. In addition, for total cell numbers, nuclei were counted in hematoxylin and eosin-stained sections and expressed per lesion area. At the sinus, sections were taken ˜200 μm from the first appearance of the leaflets. Sections at the thoracic and abdominal aorta were taken at the branch point of the 3rd pair of intra-costal arteries and the celiac artery, respectively. For macrophages, 4 μm paraffin sections were deparaffinized, rehydrated and endogenous peroxidase quenched with 3% hydrogen peroxide (15 min). Enzymatic antigen retrieval was performed in trypsin (1 mg/mL) solutions pH 7.7 containing 4 mM CaCl2 and 200 mM Tris for 30 min at 37° C., followed by a 20 min incubation in 5% normal rabbit blocking serum. Sections were then incubated overnight in a humidified chamber and at 4° C. with monoclonal rat-anti-mouse F4/80 antibody (Caltag Laboratories; dilution 1:20), followed by biotinylated rabbit anti-rat IgG (Vector Laboratories; dilution 1:200, 30 min), Vectorstain Elite ABC reagent (Vectorstain Elite ABC Kit, Vector Laboratories; 30 min), and 3,3′-diaminobenzidine substrate-chromogen (Dako Corporation) with counterstaining using Harris hematoxylin. Images were captured using a Zeiss Axiophot Photomicroscope, and the area staining positive for F4/80 antigen expressed as a percentage of the total lesion area. Collagen was determined as described in Histochemical Journal 1979, 11:447-455. Briefly, 4 μm sections were deparaffinized, rehydrated and stained with 0.1% Sirius red (Fast red F3B) in saturated aqueous picric acid (pH 2.0) for 1 h at room temperature and then transferred to a solution of 0.01 N HCl for 2 min followed by counterstaining in Harris hematoxylin for 1 min. Total lesion area were measured from bright field images captured with an Olympus BX60 photomicroscope attached with a SPOT digital camera, whereas the birefringent area staining positive for Sirius red was detected using polarization microscopy and expressed as a percentage of the total lesion area at that site.

[1] = descending aorta, versus control

**Q.** For `CC(C)(Sc1cc(C(C)(C)C)c(O)c(C(C)(C)C)c1)Sc1cc(C(C)(C)C)c(O)c(C(C)(C)C)c1` [probucol], which “% ECM of total lesion area” value (Sinus, n = 6) is on record?
**A.** 66±13%

**Q.** What about the “% Mφ of total lesion area” value (Sinus, n = 6) of the same compound?
**A.** 14 ± 5^a %

**Q.** And the ECM area (Sinus, n = 6)?
**A.** 577 ± 126^a μm^2 × 10^−3

**Q.** And the “Lesion area (extra-cellular matrix series)” value (Sinus, n = 6)?
**A.** 878 ± 153^a μm^2 × 10^−3

**Q.** What about the “Lesion area (macrophage series)” value (Sinus, n = 6) of the same compound?
**A.** 886 ± 89^a μm^2 × 10^−3

**Q.** And the Mφ area (Sinus, n = 6)?
**A.** 127 ± 53 ^ μm^2 × 10^−3

**Q.** What about the “% ECM of total lesion area” value (Sinus, n = 6, listed as Probucol) of the same compound?
**A.** 66 ± 13^a %

**Q.** What about the “Lesion area (total cell density series)” value (Sinus, n = 8) of the same compound?
**A.** 889 ± 254^a μm^2 × 10^−3

**Q.** What about the “Total cells/μm^2” value (Sinus, n = 8) of the same compound?
**A.** 1.7 ± 0.6^a cells/μm^2

**Q.** What about the “Total number of cells” value (Sinus, n = 8) of the same compound?
**A.** 1423 ± 441 ^

**Q.** What about the “% ECM of total lesion area” value (T/A, n = 6) of the same compound?
**A.** 0.0 ± 0.0^a %

**Q.** What about the “% Mφ of total lesion area” value (T/A, n = 6) of the same compound?
**A.** 99.4 ± 1.4 ^ %

**Q.** What about the ECM area (T/A, n = 6) of the same compound?
**A.** 0.0 ± 0.0^a μm^2 × 10^−3

**Q.** And the “Lesion area (extra-cellular matrix series)” value (T/A, n = 6)?
**A.** 13 ± 3^a μm^2 × 10^−3

**Q.** What about the “Lesion area (macrophage series)” value (T/A, n = 6) of the same compound?
**A.** 22 ± 15^a μm^2 × 10^−3

**Q.** What about the “Lesion area (total cell density series)” value (T/A, n = 6) of the same compound?
**A.** 22 ± 15^a μm^2 × 10^−3

**Q.** And the Mφ area (T/A, n = 6)?
**A.** 21 ± 12^a μm^2 × 10^−3

**Q.** What about the “Total cells/μm^2” value (T/A, n = 6) of the same compound?
**A.** 0.36 ± 0.39^ cells/μm^2

**Q.** And the “Total number of cells” value (T/A, n = 6)?
**A.** 10 ± 13^a

**Q.** What about the Decrease in macrophages [1] of the same compound?
**A.** ~91%

**Q.** What about the “Decrease in total cell numbers” value [1] of the same compound?
**A.** ~91%

**Q.** And the “Decrease in percentage of lesion area covered by macrophages” value (sinus, versus control)?
**A.** ~50%
